# Experimental data as given in ChEMBL document CHEMBL3045224, “New insecticidal compounds, communesins C, D and E, from Penicillium expansum link MK-57” (2004).
# Tested on: Bombyx mori
# Test: Insecticidal activity against po dosed third-instar larvae of Bombyx mori assessed as gram of diet
# Type: functional
row,SMILES,LD50 [mg/kg]
1,CC(=O)N1CC[C@@]23c4ccccc4N[C@@H]4N(C)c5cccc6c5[C@@]42CCN([C@@H]6C=C(C)C)[C@@H]13 [COMMUNESIN E],80
2,C/C=C/C=C/C(=O)N1CC[C@@]23c4ccccc4N[C@@H]4N(C=O)c5cccc6c5[C@@]42CCN([C@@H]13)[C@@H]6[C@H]1OC1(C)C [COMMUNESIN D],80
3,CC(=O)N1CC[C@@]23c4ccccc4N[C@@H]4N(C)c5cccc6c5[C@@]42CCN([C@@H]13)[C@@H]6[C@H]1OC1(C)C [COMMUNESIN A],150
4,C/C=C/C=C/C(=O)N1CC[C@@]23c4ccccc4N[C@@H]4N(C)c5cccc6c5[C@@]42CCN([C@@H]13)[C@@H]6[C@H]1OC1(C)C [COMMUNESIN B],5
5,C/C=C/C=C/C(=O)N1CC[C@@]23c4ccccc4N[C@@H]4Nc5cccc6c5[C@@]42CCN([C@@H]13)[C@@H]6[C@H]1OC1(C)C [COMMUNESIN C],300
